Test system: immunoglobulin light chain protein WIL-FL T46L
Assay: Differential scanning fluorimetry (thermal shift) assay
Type: binding
Settings: Table B; temperature shift [Tm]compound-[Tm]vehicle; recombinant WIL-FL T46L

SMILES	DSF
Cc1cc(N2CC[C@](C)(c3ccccc3)C2)cn2nc(C34CC(C(=O)N[C@@H]5COC[C@H]5O)(CO3)C4)nc12 [Compound 441]	***** (>2.5° C.=*****)
Cc1cc(N2CC[C@](C)(c3ccccc3)C2)cn2nc(C34CC(C(=O)N[C@@H](C)CO)(CO3)C4)nc12 [Compound 442]	***** (>2.5° C.=*****)
Cc1cc(N2CC[C@](C)(c3ccccc3)C2)cn2nc(C34CC(C(=O)NC(C)C)(CO3)C4)nc12 [Compound 443]	***** (>2.5° C.=*****)
Cc1cc(N2CC[C@](C)(c3ccccc3)C2)cn2nc(C34CC(C(=O)NCC(=O)O)(CO3)C4)nc12 [Compound 444]	***** (>2.5° C.=*****)
Cc1cc(N2CC[C@](C)(c3ccccc3)C2)cn2nc(C34CC(C(=O)N5CC6C(C5)C6C(=O)O)(CO3)C4)nc12 (stereo partly shown) [Compound 445]	***** (>2.5° C.=*****)
Cc1cc(N2CC[C@](C)(c3ccccc3)C2)cn2nc(C34CC(C(=O)NC5CCOC5)(CO3)C4)nc12 (stereo partly shown) [Compound 446]	***** (>2.5° C.=*****)
Cc1ncn(CC23COC(c4nc5c(C)cc(N6CC[C@](C)(c7ccccc7)C6)cn5n4)(C2)C3)n1 [Compound 447]	***** (>2.5° C.=*****)
Cc1nc(CNC(=O)C23COC(c4nc5c(C)cc(N6CC[C@](C)(c7ccccc7)C6)cn5n4)(C2)C3)n[nH]1 [Compound 448]	***** (>2.5° C.=*****)
Cc1cc(N2CC[C@](C)(c3ccccc3)C2)cn2nc(C34CC(Cn5ncnc5C)(CO3)C4)nc12 [Compound 449]	***** (>2.5° C.=*****)
Cc1cnn(CC23COC(c4nc5c(C)cc(N6CC[C@](C)(c7ccccc7)C6)cn5n4)(C2)C3)n1 [Compound 450]	***** (>2.5° C.=*****)
Cc1cc(N2CC[C@](C)(c3ccccc3)C2)cn2nc(C34CC(Cn5nncc5C)(CO3)C4)nc12 [Compound 451]	***** (>2.5° C.=*****)
Cc1cc(NC(=O)C23COC(c4nc5c(C)cc(N6CC[C@](C)(c7ccccc7)C6)cn5n4)(C2)C3)cc(C(=O)O)n1 [Compound 452]	***** (>2.5° C.=*****)
Cc1cc(N2CC[C@](C)(c3ccccc3)C2)cn2nc(C34CC(C(=O)NCc5ccnc(C(=O)O)c5)(CO3)C4)nc12 [Compound 453]	***** (>2.5° C.=*****)
Cc1cc(N2CC[C@](C)(c3ccccc3)C2)cn2nc(C34CC(NC(=O)Nc5cccc(C(=O)O)n5)(CO3)C4)nc12 [Compound 454]	***** (>2.5° C.=*****)
Cc1cc(N2CC[C@](C)(c3ccccc3)C2)cn2nc(C34CC(C(=O)Nc5ccnc(C(=O)O)c5)(CO3)C4)nc12 [Compound 456]	***** (>2.5° C.=*****)
Cc1cc(N2CC[C@](C)(c3ccccc3)C2)cn2nc(C34CC(CNC(=O)CC(C)(C)O)(CO3)C4)nc12 [Compound 457, (R)-3-hydroxy-3-methyl-N-((1-(8-methyl-6-(3-methyl-3-phenylpyrrolidin-1-yl)-[1,2,4]triazolo[1,5-a]pyridin-2-yl)-2-oxabicyclo[2.1.1]hexan-4-yl)methyl)butanamide]	***** (>2.5° C.=*****)
Cc1cc(N2CC[C@](C)(c3ccccc3)C2)cn2nc(C34CC(COCC(=O)O)(CO3)C4)nc12 [Compound 459, 2-[[1-[8-methyl-6-[(3R)-3-methyl-3-phenyl-pyrrolidin-1-yl]-[1,2,4]triazolo[1,5-a]pyridin-2-yl]-2-oxabicyclo[2.1.1]hexan-4-yl]methoxy]acetic acid]	***** (>2.5° C.=*****)
Cc1cc(N2CC[C@](C)(c3ccccc3)C2)cn2nc(C34CC(CC(=O)Nc5cccc(C(=O)O)n5)(CO3)C4)nc12 [Compound 460, 6-[[2-[1-[8-methyl-6-[(3R)-3-methyl-3-phenyl-pyrrolidin-1-yl]-[1,2,4]triazolo[1,5-a]pyridin-2-yl]-2-oxabicyclo[2.1.1]hexan-4-yl]acetyl]amino]pyridine-2-carboxylic acid]	***** (>2.5° C.=*****)
Cc1cc(N2CC[C@](C)(c3ccccc3)C2)cn2nc(C34CC(CNc5cccc(C(=O)O)n5)(CO3)C4)nc12 [Compound 461]	***** (>2.5° C.=*****)

Source: patent US20260285857A1, “BICYCLIC AND HETEROCYCLIC AMIDE COMPOUNDS” (priority 2024, published 2026)
